Experimental data as given in ChEMBL document CHEMBL5291721, “A preclinical secondary pharmacology resource illuminates target-adverse drug reaction associations of marketed drugs” (Nat Commun, 2023).

Columns and labels:
Thromboxane A2 receptor = molecular target: T1, Thromboxane A2 receptor (Homo sapiens, UniProt P21731)
T1 sequence (P21731 whole entry): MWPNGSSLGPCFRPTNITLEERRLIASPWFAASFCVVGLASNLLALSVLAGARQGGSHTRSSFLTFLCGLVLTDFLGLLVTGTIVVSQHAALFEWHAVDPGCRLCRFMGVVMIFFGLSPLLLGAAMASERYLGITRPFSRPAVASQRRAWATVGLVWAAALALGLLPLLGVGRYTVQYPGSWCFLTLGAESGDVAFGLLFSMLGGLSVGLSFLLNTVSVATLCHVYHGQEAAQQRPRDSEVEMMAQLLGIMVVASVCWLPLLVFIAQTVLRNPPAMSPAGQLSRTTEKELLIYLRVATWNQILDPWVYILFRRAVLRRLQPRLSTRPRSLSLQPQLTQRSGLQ

[1] = molecular target: Voltage-dependent L-type calcium channel subunit alpha-1C (Rattus norvegicus, UniProt P22002); format: functional
Sequence of Voltage-dependent L-type calcium channel subunit alpha-1C (P22002 whole entry): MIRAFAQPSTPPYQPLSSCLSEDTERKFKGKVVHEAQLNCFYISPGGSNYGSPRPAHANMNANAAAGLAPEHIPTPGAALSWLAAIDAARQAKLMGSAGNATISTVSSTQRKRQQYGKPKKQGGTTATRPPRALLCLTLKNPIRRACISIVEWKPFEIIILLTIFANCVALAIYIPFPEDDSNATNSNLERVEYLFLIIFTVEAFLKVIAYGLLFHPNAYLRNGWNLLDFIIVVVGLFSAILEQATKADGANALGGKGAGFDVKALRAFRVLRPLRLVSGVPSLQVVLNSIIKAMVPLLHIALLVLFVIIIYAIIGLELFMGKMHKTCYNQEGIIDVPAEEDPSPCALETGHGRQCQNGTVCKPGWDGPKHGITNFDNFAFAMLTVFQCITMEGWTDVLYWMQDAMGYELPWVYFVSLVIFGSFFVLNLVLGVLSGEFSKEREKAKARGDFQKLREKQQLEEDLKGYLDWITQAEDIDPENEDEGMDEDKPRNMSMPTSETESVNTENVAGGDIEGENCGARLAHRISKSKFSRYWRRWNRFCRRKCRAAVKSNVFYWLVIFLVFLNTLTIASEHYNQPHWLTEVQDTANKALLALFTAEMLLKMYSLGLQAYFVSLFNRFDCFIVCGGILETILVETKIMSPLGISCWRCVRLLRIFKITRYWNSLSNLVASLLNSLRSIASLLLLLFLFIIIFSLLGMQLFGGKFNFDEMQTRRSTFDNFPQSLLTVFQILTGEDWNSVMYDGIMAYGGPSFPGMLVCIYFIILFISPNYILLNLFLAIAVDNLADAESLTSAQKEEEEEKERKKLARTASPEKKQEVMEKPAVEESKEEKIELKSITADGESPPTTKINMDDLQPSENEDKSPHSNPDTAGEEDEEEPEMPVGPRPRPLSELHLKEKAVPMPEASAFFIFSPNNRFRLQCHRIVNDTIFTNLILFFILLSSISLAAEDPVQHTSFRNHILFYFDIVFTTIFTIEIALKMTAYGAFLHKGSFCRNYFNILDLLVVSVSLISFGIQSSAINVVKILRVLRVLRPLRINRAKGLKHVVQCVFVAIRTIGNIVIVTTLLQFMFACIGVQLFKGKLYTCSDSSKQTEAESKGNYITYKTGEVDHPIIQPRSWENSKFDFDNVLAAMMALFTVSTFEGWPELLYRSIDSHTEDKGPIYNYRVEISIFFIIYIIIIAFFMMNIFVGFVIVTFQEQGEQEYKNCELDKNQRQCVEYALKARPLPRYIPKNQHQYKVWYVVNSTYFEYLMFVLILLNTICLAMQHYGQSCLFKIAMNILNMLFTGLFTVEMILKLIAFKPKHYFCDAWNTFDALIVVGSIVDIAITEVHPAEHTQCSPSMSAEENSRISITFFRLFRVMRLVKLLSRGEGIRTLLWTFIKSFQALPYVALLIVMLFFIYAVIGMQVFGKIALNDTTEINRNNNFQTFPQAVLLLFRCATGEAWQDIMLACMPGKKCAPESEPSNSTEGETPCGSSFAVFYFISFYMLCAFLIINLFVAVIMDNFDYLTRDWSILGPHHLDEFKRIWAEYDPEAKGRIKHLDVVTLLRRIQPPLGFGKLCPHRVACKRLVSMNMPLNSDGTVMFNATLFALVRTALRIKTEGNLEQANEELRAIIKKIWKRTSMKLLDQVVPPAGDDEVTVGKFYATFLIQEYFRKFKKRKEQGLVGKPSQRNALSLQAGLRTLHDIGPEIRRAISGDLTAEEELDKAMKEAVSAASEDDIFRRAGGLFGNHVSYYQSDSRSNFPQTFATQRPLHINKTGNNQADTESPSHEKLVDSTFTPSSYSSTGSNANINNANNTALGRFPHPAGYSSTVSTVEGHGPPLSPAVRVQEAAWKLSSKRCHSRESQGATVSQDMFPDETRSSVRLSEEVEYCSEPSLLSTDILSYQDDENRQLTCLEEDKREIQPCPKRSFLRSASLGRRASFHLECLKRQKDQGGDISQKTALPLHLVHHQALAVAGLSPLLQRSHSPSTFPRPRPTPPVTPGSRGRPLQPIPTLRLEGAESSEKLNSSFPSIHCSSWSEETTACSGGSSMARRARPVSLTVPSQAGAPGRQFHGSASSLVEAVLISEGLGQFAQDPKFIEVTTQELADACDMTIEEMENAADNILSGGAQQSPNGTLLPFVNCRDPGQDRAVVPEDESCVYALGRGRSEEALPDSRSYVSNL

[2] = molecular target: Sodium-dependent serotonin transporter (Homo sapiens, UniProt P31645)
Sequence of Sodium-dependent serotonin transporter (P31645 whole entry): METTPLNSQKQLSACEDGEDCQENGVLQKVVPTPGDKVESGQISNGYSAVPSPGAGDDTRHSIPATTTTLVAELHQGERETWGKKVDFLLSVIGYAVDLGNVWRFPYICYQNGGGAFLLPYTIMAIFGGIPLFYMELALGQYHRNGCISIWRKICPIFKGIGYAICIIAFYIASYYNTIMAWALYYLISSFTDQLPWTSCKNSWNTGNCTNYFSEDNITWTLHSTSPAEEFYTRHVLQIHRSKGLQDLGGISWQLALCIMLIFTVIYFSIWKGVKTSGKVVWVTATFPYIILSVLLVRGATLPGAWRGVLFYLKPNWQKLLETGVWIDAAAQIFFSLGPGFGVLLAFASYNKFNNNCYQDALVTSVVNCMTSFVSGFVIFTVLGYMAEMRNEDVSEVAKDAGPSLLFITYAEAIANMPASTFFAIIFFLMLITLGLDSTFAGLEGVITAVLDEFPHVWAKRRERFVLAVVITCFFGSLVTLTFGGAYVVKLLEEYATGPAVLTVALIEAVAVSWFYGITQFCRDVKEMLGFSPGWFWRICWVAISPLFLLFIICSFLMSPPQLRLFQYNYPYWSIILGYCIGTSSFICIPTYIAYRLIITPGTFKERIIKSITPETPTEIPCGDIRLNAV

Endothelin-1 receptor = molecular target: T2, Endothelin-1 receptor (Homo sapiens, UniProt P25101)
T2 sequence (P25101 whole entry): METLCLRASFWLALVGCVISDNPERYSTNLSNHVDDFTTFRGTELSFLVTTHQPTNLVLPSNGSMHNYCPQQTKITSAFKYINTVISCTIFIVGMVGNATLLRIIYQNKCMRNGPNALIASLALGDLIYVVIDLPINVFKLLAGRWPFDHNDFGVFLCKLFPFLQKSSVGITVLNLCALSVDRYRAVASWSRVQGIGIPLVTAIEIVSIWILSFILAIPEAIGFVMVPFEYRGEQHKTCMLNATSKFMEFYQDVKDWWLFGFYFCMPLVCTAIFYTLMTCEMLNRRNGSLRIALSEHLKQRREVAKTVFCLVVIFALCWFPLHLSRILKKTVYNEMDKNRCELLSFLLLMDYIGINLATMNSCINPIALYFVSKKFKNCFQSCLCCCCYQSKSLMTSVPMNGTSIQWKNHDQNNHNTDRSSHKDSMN

Progesterone receptor = molecular target: T3, Progesterone receptor (Homo sapiens, UniProt P06401); format: functional
T3 sequence (P06401 whole entry): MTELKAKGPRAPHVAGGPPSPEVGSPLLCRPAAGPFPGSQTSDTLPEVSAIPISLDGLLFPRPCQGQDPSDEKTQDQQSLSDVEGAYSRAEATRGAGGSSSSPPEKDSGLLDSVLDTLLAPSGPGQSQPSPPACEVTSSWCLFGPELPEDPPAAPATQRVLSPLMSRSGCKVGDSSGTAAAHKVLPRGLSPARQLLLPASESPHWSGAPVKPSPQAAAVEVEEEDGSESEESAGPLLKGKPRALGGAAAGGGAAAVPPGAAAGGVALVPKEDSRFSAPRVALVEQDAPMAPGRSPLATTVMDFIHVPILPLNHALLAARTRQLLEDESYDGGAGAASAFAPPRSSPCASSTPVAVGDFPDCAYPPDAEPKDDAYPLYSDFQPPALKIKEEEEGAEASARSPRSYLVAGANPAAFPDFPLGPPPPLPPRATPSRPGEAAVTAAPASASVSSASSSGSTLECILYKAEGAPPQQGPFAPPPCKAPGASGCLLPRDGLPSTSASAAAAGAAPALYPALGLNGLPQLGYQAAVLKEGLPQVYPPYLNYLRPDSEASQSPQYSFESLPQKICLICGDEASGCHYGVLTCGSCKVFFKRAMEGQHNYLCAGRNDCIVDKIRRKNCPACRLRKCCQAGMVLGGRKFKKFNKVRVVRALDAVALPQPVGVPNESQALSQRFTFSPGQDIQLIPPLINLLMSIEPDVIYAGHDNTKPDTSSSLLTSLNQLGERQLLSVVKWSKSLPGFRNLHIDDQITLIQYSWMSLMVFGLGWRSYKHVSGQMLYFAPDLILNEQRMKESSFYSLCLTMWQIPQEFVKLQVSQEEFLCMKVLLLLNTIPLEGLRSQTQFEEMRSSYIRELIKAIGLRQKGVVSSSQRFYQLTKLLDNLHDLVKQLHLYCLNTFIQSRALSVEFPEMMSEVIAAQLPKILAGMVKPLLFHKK

[3] = molecular target: Beta-2 adrenergic receptor (Homo sapiens, UniProt P07550)
Sequence of Beta-2 adrenergic receptor (P07550 whole entry): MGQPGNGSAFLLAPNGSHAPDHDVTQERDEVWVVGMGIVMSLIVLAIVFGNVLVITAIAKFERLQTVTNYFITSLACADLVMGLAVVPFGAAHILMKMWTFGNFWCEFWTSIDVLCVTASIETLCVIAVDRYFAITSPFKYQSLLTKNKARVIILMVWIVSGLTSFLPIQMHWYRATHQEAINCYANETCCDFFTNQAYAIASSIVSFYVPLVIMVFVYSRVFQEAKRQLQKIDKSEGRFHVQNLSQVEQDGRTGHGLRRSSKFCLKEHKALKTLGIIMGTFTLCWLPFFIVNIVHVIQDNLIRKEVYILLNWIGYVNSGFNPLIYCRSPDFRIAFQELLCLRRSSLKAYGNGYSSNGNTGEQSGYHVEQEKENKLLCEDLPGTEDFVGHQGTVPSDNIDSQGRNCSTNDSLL

Estrogen receptor = molecular target: T4, Estrogen receptor (Homo sapiens, UniProt P03372)
T4 sequence (P03372 whole entry): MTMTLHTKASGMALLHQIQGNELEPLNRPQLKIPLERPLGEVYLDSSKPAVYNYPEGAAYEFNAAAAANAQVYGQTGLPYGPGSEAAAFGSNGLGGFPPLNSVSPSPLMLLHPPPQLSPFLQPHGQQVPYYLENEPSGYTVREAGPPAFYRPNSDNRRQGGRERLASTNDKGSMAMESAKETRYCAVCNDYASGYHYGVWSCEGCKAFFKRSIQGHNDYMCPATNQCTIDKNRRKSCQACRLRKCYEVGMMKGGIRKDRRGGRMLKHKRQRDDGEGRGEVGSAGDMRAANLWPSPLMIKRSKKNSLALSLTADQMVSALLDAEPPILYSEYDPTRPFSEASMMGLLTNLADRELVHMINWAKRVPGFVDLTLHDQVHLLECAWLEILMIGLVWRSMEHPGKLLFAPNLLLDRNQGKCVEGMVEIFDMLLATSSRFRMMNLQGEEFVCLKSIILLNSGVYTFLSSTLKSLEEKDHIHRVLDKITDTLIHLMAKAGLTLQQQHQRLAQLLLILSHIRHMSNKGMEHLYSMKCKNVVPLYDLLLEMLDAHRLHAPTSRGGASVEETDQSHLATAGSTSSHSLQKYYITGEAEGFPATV

Motilin receptor = Motilin receptor (Homo sapiens, UniProt O43193)
Sequence of Motilin receptor (O43193 whole entry): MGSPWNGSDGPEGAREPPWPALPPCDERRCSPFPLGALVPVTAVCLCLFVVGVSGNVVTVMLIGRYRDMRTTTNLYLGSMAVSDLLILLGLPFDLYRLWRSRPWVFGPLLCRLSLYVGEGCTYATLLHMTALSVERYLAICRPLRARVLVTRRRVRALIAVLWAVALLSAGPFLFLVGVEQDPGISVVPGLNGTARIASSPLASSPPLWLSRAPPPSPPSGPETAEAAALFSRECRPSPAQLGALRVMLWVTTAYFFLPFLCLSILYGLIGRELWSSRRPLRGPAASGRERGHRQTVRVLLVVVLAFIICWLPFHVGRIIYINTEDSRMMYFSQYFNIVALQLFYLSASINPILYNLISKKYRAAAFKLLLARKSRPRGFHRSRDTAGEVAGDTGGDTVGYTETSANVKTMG

[4] = molecular target: T5, Equilibrative nucleoside transporter 1 (Homo sapiens, UniProt Q99808)
T5 sequence (Q99808 whole entry): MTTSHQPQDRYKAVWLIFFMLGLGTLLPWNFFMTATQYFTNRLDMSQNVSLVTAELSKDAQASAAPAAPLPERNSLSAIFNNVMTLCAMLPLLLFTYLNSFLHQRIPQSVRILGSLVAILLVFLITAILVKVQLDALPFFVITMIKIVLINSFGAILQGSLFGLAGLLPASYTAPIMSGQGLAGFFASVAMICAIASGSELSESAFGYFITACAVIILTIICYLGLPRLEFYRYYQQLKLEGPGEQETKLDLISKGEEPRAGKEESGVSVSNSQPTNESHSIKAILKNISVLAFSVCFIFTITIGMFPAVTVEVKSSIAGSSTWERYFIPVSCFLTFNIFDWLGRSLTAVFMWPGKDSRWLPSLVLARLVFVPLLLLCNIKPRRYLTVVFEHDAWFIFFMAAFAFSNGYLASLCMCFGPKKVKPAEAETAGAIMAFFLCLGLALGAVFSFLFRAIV
Further: assay procedure not described here.

| SMILES | AC50 (Thromboxane A2 receptor) | AC50 [1] | AC50 [2] | AC50 (Endothelin-1 receptor) | AC50 (Progesterone receptor) | AC50 [3] | AC50 (Estrogen receptor) | AC50 (Motilin receptor) | AC50 [4] |
| --- | --- | --- | --- | --- | --- | --- | --- | --- | --- |
| CS(=O)(=O)Nc1cc2occ(NC=O)c(=O)c2cc1Oc1ccccc1 [IGURATIMOD] | – | – | > 30 µM | – | > 30 µM | – | – | – | – |
| CN(CCCN1c2ccccc2CCc2ccccc21)CC(=O)c1ccc(Cl)cc1 [LOFEPRAMINE] | > 30 µM | 2.4 µM | – | > 30 µM | – | 20 µM | > 30 µM | > 30 µM | > 30 µM |
| CC(=O)O[C@]1(C(C)=O)CC[C@H]2[C@@H]3C[C@H](C)C4=CC(=O)CC[C@]4(C)[C@H]3CC[C@@]21C [MEDROXYPROGESTERONE ACETATE] | – | – | – | > 30 µM | – | – | – | > 30 µM | > 30 µM |
| CN(C/C=C/c1ccccc1)Cc1cccc2ccccc12 [NAFTIFINE] | > 30 µM | > 10 µM | – | – | > 30 µM | > 30 µM | > 30 µM | > 10 µM | > 30 µM |
| CC(C)NCC1CCc2cc(CO)c([N+](=O)[O-])cc2N1 (stereo not given) [OXAMNIQUINE] | > 10 µM | > 10 µM | 39.6 µM | – | > 10 µM | > 10 µM | > 10 µM | > 10 µM | > 30 µM |
| O=C1CCC(N2C(=O)c3ccccc3C2=O)C(=O)N1 (stereo not given) [THALIDOMIDE] | > 30 µM | > 10 µM | – | > 30 µM | – | > 10 µM | – | > 10 µM | > 30 µM |

The next lines start with the values.

| AC50 (Thromboxane A2 receptor) | AC50 [1] | AC50 [2] | AC50 (Endothelin-1 receptor) | AC50 (Progesterone receptor) | AC50 [3] | AC50 (Estrogen receptor) | AC50 (Motilin receptor) | AC50 [4] | SMILES |
| --- | --- | --- | --- | --- | --- | --- | --- | --- | --- |
| > 30 µM | > 30 µM | 0.28 µM | > 30 µM | > 30 µM | > 30 µM | > 30 µM | > 30 µM | – | CC(C(O)c1ccc(O)cc1)N1CCC(Cc2ccccc2)CC1 (stereo not given) [IFENPRODIL] |
| > 30 µM | > 10 µM | > 30 µM | – | – | > 30 µM | > 30 µM | > 10 µM | > 30 µM | CC(=O)N(CC(O)CO)c1c(I)c(C(=O)NCC(O)CO)c(I)c(C(=O)NCC(O)CO)c1I (stereo not given) [IOHEXOL] |
| > 30 µM | > 10 µM | – | > 30 µM | – | 7.6 µM | – | > 10 µM | > 30 µM | CN(C)CCCN1c2ccccc2Sc2ccccc21 [PROMAZINE] |
| > 30 µM | > 30 µM | – | > 30 µM | > 30 µM | > 30 µM | > 30 µM | > 30 µM | > 30 µM | O=P(O)(O)C(O)(Cc1cccnc1)P(=O)(O)O [RISEDRONIC ACID] |
| > 30 µM | > 30 µM | > 30 µM | – | > 30 µM | > 30 µM | > 30 µM | > 30 µM | > 30 µM | CC(=O)N[C@H]1[C@H]([C@H](O)[C@H](O)CO)OC(C(=O)O)=C[C@@H]1N=C(N)N [ZANAMIVIR] |
